9 molecules from the NIST ThermoML archive (doi:10.1021/acs.jced.5b00820) can be followed below.

A word on the mass density: it is the mass of a sample divided by its volume. One may read the refractive index as the speed of light in vacuum divided by its phase velocity in the sample.

Where “and” joins values, the source holds several entries; their conditions need not be identical. Equal entries are not always repeated. Numbers after ± are expanded uncertainties.

For data set [1] the following is noted: 102.2 kPa, Liquid, Vibrating tube method.
Data set [2] can be described thus: refractive index (Na D-line) (dimensionless). To be noted: 102.2 kPa, Liquid, Standard Abbe refractometry.
The nature of data set [3]: xn = mol fraction of the nth substance listed. To be noted: 102.2 kPa, Liquid, Vibrating tube method, x2 = 0.
The nature of data set [4]: refractive index (Na D-line) (dimensionless); xn = mol fraction of the nth substance listed. To be noted: 102.2 kPa, Liquid, Standard Abbe refractometry, x2 = 0.

Turning to `C[Si]1(CCC(F)(F)F)O[Si](C)(CCC(F)(F)F)O[Si](C)(CCC(F)(F)F)O1` (stereo not given), the mass density stood at 1236.82 ± 0.23 kg/m3 in data set [1] (308.15 K); 1230.2 ± 0.23 kg/m3 in data set [1] (313.15 K); 1223.61 ± 0.23 kg/m3 in data set [1] (318.15 K); 1217.06 ± 0.23 kg/m3 in data set [1] (323.15 K); 1210.43 ± 0.23 kg/m3 in data set [1] (328.15 K). Further, the refractive index in data set [2] (308.15 K) came out at 1.36015 ± 0.00035; in data set [2] (313.15 K), 1.35814 ± 0.00035; in data set [2] (318.15 K), 1.35614 ± 0.00035; in data set [2] (323.15 K) it was 1.35413 ± 0.00035; in data set [2] (328.15 K), 1.35215 ± 0.00035.

Turning to `C[Si]1(CCC(F)(F)F)O[Si](C)(CCC(F)(F)F)O[Si](C)(CCC(F)(F)F)O1` (stereo not given) + C[Si](C)(O[Si](C)(C)c1ccccc1)c1ccccc1, the mass density in data set [3] (308.15 K) was found to be 1236.82 ± 0.23 kg/m3; in data set [3] (313.15 K), 1230.2 ± 0.23 kg/m3; in data set [3] (318.15 K), 1223.61 ± 0.23 kg/m3; in data set [3] (323.15 K) it was 1217.06 ± 0.23 kg/m3; in data set [3] (328.15 K) it was 1210.43 ± 0.23 kg/m3. The refractive index in data set [4] (308.15 K) was determined as 1.36015 ± 0.00035; in data set [4] (313.15 K) it was 1.35814 ± 0.00035; in data set [4] (318.15 K) it was 1.35614 ± 0.00035; in data set [4] (323.15 K), 1.35413 ± 0.00035; in data set [4] (328.15 K) it was 1.35215 ± 0.00035.

As to `C=C[Si](C)(C)O[Si](C)(C)C=C` [1,3-diethenyl-1,1,3,3-tetramethyldisiloxane], the mass density in data set [1] (308.15 K) came out at 797.99 ± 0.23 kg/m3; in data set [1] (313.15 K), 793.04 ± 0.23 kg/m3; in data set [1] (318.15 K) it was 788.05 ± 0.24 kg/m3; in data set [1] (323.15 K) it was 783.06 ± 0.24 kg/m3; in data set [1] (328.15 K), 778.04 ± 0.24 kg/m3. For the same molecule, the refractive index in data set [2] (308.15 K) amounted to 1.40445 ± 0.00036; in data set [2] (313.15 K) it was 1.40178 ± 0.00036; in data set [2] (318.15 K), 1.39912 ± 0.00036; in data set [2] (323.15 K), 1.39644 ± 0.00036; in data set [2] (328.15 K), 1.39378 ± 0.00036.

As to `C=C[Si](C)(C)O[Si](C)(C)C=C` [1,3-diethenyl-1,1,3,3-tetramethyldisiloxane] + C[Si](C)(O[Si](C)(C)c1ccccc1)c1ccccc1, the mass density worked out at 797.99 ± 0.23 kg/m3 in data set [3] (308.15 K); 793.04 ± 0.23 kg/m3 in data set [3] (313.15 K); 788.05 ± 0.24 kg/m3 in data set [3] (318.15 K); 783.06 ± 0.24 kg/m3 in data set [3] (323.15 K); 778.04 ± 0.24 kg/m3 in data set [3] (328.15 K). Also, the refractive index in data set [4] (308.15 K) was 1.40445 ± 0.00036; in data set [4] (313.15 K), 1.40178 ± 0.00036; in data set [4] (318.15 K), 1.39912 ± 0.00036; in data set [4] (323.15 K) it was 1.39644 ± 0.00036; in data set [4] (328.15 K), 1.39378 ± 0.00036.

Consider `C[Si](C)(O[Si](C)(C)c1ccccc1)c1ccccc1` [1,3-diphenyltetramethyldisiloxane], for which the mass density in data set [1] (308.15 K) was 968.05 ± 0.21 kg/m3 and 967.99 ± 0.21 kg/m3 and 967.9 ± 0.21 kg/m3; in data set [1] (313.15 K), 963.92 ± 0.21 kg/m3 [middle of 4 runs]; in data set [1] (318.15 K), 959.8 ± 0.21 kg/m3 [middle of 4 runs]; in data set [1] (323.15 K) it was 955.69 ± 0.21 kg/m3 [middle of 4 runs]; in data set [1] (328.15 K), 951.57 ± 0.21 kg/m3 and 951.58 ± 0.21 kg/m3 and 951.65 ± 0.21 kg/m3. The refractive index in data set [2] (308.15 K) was 1.51064 ± 0.00035 [middle of 4 runs]; in data set [2] (313.15 K) it was 1.50832 ± 0.00035 [middle of 4 runs]; in data set [2] (318.15 K) it was 1.50605 ± 0.00035 [middle of 4 runs]; in data set [2] (323.15 K), 1.50377 ± 0.00035 [middle of 4 runs]; in data set [2] (328.15 K), 1.50144 ± 0.00035 [middle of 4 runs].

For the molecule `C=C[Si]1(C)O[Si](C)(C=C)O[Si](C)(C=C)O[Si](C)(C=C)O1` (stereo not given) [2,4,6,8-tetramethyl-2,4,6,8-tetravinylcycloterasiloxane], the mass density in data set [1] (308.15 K) stood at 972.64 ± 0.21 kg/m3; in data set [1] (313.15 K) it was 967.49 ± 0.21 kg/m3; in data set [1] (318.15 K), 962.36 ± 0.21 kg/m3; in data set [1] (323.15 K) it was 957.2 ± 0.21 kg/m3; in data set [1] (328.15 K) it was 952.03 ± 0.21 kg/m3. For the same molecule, the refractive index in data set [2] (308.15 K) is recorded as 1.42751 ± 0.00035; in data set [2] (313.15 K), 1.42514 ± 0.00035; in data set [2] (318.15 K) it was 1.42275 ± 0.00035; in data set [2] (323.15 K), 1.4204 ± 0.0004; in data set [2] (328.15 K), 1.41802 ± 0.00035.

Regarding `C=C[Si]1(C)O[Si](C)(C=C)O[Si](C)(C=C)O[Si](C)(C=C)O1` (stereo not given) [2,4,6,8-tetramethyl-2,4,6,8-tetravinylcycloterasiloxane] + C[Si](C)(O[Si](C)(C)c1ccccc1)c1ccccc1, the mass density in data set [3] (308.15 K) was determined as 972.64 ± 0.21 kg/m3; in data set [3] (313.15 K) it was 967.49 ± 0.21 kg/m3; in data set [3] (318.15 K), 962.36 ± 0.21 kg/m3; in data set [3] (323.15 K) it was 957.2 ± 0.21 kg/m3; in data set [3] (328.15 K) it was 952.03 ± 0.21 kg/m3. Moreover, the refractive index in data set [4] (308.15 K) was determined as 1.42751 ± 0.00035; in data set [4] (313.15 K) it was 1.42514 ± 0.00035; in data set [4] (318.15 K) it was 1.42275 ± 0.00035; in data set [4] (323.15 K), 1.4204 ± 0.0004; in data set [4] (328.15 K), 1.41802 ± 0.00035.

With `C[Si]1(C)O[Si](C)(C)O[Si](C)(C)O[Si](C)(C)O1` [octamethylcyclotetrasiloxane], the mass density in data set [1] (308.15 K) is listed as 938.88 ± 0.22 kg/m3; in data set [1] (313.15 K), 933.06 ± 0.22 kg/m3; in data set [1] (318.15 K), 927.34 ± 0.22 kg/m3; in data set [1] (323.15 K), 921.59 ± 0.22 kg/m3; in data set [1] (328.15 K) it was 915.8 ± 0.22 kg/m3. Besides, the refractive index in data set [2] (308.15 K) is reported as 1.38924 ± 0.00036; in data set [2] (313.15 K), 1.38671 ± 0.00036; in data set [2] (318.15 K), 1.38419 ± 0.00036; in data set [2] (323.15 K), 1.38168 ± 0.00036; in data set [2] (328.15 K), 1.37916 ± 0.00036.

Turning to `C[Si]1(C)O[Si](C)(C)O[Si](C)(C)O[Si](C)(C)O1` [octamethylcyclotetrasiloxane] + C[Si](C)(O[Si](C)(C)c1ccccc1)c1ccccc1, the mass density came to 938.88 ± 0.22 kg/m3 in data set [3] (308.15 K); 933.06 ± 0.22 kg/m3 in data set [3] (313.15 K); 927.34 ± 0.22 kg/m3 in data set [3] (318.15 K); 921.59 ± 0.22 kg/m3 in data set [3] (323.15 K); 915.8 ± 0.22 kg/m3 in data set [3] (328.15 K). Also, the refractive index came out at 1.38924 ± 0.00036 in data set [4] (308.15 K); 1.38671 ± 0.00036 in data set [4] (313.15 K); 1.38419 ± 0.00036 in data set [4] (318.15 K); 1.38168 ± 0.00036 in data set [4] (323.15 K); 1.37916 ± 0.00036 in data set [4] (328.15 K).
